Patent US20220356169A1, “TETRAZINES FOR HIGH CLICK RELEASE SPEED AND YIELD” (priority 2019, published 2022)
Marks after values point to notes of the source that are not given here.

Key:
ADC AVP0458-TCO-MMAE = assay: Triggered drug (MMAE) release from ADC in 50% mouse plasma, HPLC-SIM-MS; details: for MMAE release from ADC AVP0458-TCO-MMAE, Release (%) / MMAE release level, in words: 50% mouse plasma, 37° C.; for MMAE release level, in words: after 24h incubation
Procedure: In a 1.5 mL vial, the following was combined: 650 μL mouse plasma, 600 μL PBS, 20 μL ADC (1.62 μg/μL in PBS) and 7.5 μL d8-MMAE solution (0.167 μg/μL, internal standard). Next, aliquots of 20 μL were prepared to which 5.2 μL of a tetrazine solution (0.25 mM in 1:1 DMSO/H2O) was added and the solution was incubated at 37° C. At various times, 100 μL of cold MeCN was added to the aliquot and the mixture was vortexed, stored at 4° C. for 30 min. and centrifuged. 20 μL of supernatant was taken and combined with 100 μL of 1% formic acid (aq) solution. This sample was analysed with HPLC-SIM-MS to quantify the ratio of free MMAE and d8-MMAE, which is a measure of the release yield.

[1] = Triggered release of Construct-A from TCO trigger, HPLC-MS/PDA
Procedure: At the specified time point, the sample was analyzed by HPLC-MS/PDA, and the release yield was determined from the observed amounts of IEDDA adducts, elimination product, and/or released Construct. In case the release was not complete, the sample was incubated at 37° C. for additional time and analyzed once again.

[2] = Second-order rate constant of the IEDDA reaction with TCO 3.2, stopped-flow UV-Vis, pseudo first-order conditions; assay type: physicochemical; details: 25% MeCN/PBS at 20° C.; mean ± SD (n = 5)
Procedure: (§1) The second-order rate constant of the IEDDA reaction between model TCO 3.2 and activators 2.7 or 2.8 in MeCN at 20° C. was determined (n=1) by UV-Vis spectrometry under second-order conditions. A cuvette was filled with a solution of activator (3 mL 0.083 mM in MeCN), and equilibrated at 20° C. Next, a solution of TCO 3.2 (10.0 μL, 25 mM in DMSO) was added. The absorption at 540 nm was measured every second in a time course experiment. From the decay of this absorption, the conversion x was calculated. The second-order rate constant k2 was determined from the slope of the curve of a plot of 1/c-1/c0 versus time. The second-order rate constant of the IEDDA reaction between model TCO 3.2 and activators 2.7, 2.8, 2.14, 2.16, or 2.17 in 25% MeCN/PBS at 20° C. was determined (n=5) by stopped-flow UV-Vis spectrometry under pseudo first-order conditions. Tetrazine solutions (0.25 mM in 25% MeCN/PBS) and TCO 3.2 (3.45 mM in 25% MeCN/PBS) were mixed in a volume ratio of 1:1, resulting in a concentration of 0.125 mM and 1.73 mM, respectively. The absorption at 520 nm was measured every 50 ms, and from the decay of this absorption, the pseudo first-order rate constant k1′ was determined by a nonlinear Simplex regression analysis of the data points using BioKine software. The second-order rate constant k2 was calculated: k2=k1′/c,TCO. As expected for a cycloaddition reaction, the reactivity in PBS is much higher than in MeCN, and importantly the tetrazines of the invention are at least 1 order of magnitude more reactive than the known and high-releasing 3,6-bismethyl-tetrazine (2.17), while giving similar release yields (see Example 7).

[3] = Second-order rate constant of the IEDDA reaction with TCO 3.2, UV-Vis under second-order conditions in MeCN; assay type: physicochemical; details: MeCN at 20° C.; n = 1
Procedure: as §1, with “As expected for a cycloaddition reaction, the reactivity in PBS is much higher than in MeCN, and importantly the tetrazines of the invention are at least 1 order of magnitude more reactive than the known and high-releasing 3,6-bismethyl-tetrazine (2.17), while giving similar release yields (see Example 7).” left out

[4] = Activator stability in PBS at rt (UV decay at 520 nm); assay type: physicochemical; details: mean ± SD (n = 3)
Procedure: The assessment of activator stability was performed in PBS at rt. Solutions in DMSO (2.5 mM, 20 μL) were diluted with PBS (3.00 mL), filtered, and incubated at rt. The decrease of the absorption band at 520 nm was monitored using UV spectroscopy.

[5] = Cell proliferation assay (MTT); assay type: cell-based; details: human, 3 days incubation, mean ± SEM (n = 6), read-out: LS174T cell viability (%); for viability at 72 h, 0.01 μM: 0.01 μM activator; for viability at 72 h, 0.1 μM: 0.1 μM activator; for viability at 72 h, 1 μM: 1 μM activator
Procedure: The human colon carcinoma LS174T cell line was obtained from the American Type Culture Collection and cultured in RPMI-1640 medium supplemented with 2 mM glutamine and 10% heat inactivated fetal calf serum. Twenty-four hours prior to the experiment, the cells were plated in 96-well plates at a 5000 cells/well density. The cells were then incubated with serial dilutions (10 nM-1 μM; n=6) of activators 2.7, 2.8, 2.14, 2.16, 2.17, 2.18 and 2.19 in culture medium for 72h at 37° C. The % cell proliferation was assessed by an MTT assay, in comparison to cells incubated in culture medium without activator. No toxicity was observed when the LS174T cells were incubated with the tested activators (and possible metabolites formed in the presence of serum) for 3-days at a 0.01-1 μM activator concentration.

LS174T xenografts [6] = assay: MMAE measurement in tumors; assay type: in vivo, mice
Procedure: Female nude Balb/C mice were subcutaneously inoculated ca. 1×10^6 LS174T cells in the hind limb. Biodistribution studies started when the tumors reached 0.1-0.2 cm^3 size. Experiments were carried out to evaluate the reactivity between the TCO Trigger on tumor-bound ADC and activators 2.7, 2.8, 2.14 and 2.16 in LS174T xenografts, as previously performed for other activators [Rossin et al Nature Communications 2018, 9, 1484]. The activators were administered at a 20- to 100-lower dose than that used in previous activation and therapy studies (ca. 0.335 mmol/kg). […] Groups of tumor bearing mice (n=4) were injected with ^125I-labeled ADC (2 mg/kg) followed 48 h later by the activators (dose 1×: ca. 3.3 μmol/kg; dose 5×: ca. 16.7 μmol/kg) and, after 1 h, by [^111In]In-2.20 (ca. 0.33 μmol/kg). One group was injected with the same amount of ^125I-labeled ADC followed only by ^111In-2.20 49 h later. One group was injected only with ^111In-2.20 (non-specific probe binding). All mice were euthanized 23 h post-probe injection and the ^125I and ^111In uptakes in tumors were measured by γ-counting.
The concentration of MMAE released in tumors was measured as previously reported [Rossin et al Nature Communications 2018, 9, 1484]. […] For this reason, activator 2.16 was selected for a therapy study in combination with the click-cleavable ADC. At the doses of tc-ADC (4 mg/kg) and 2.16 (dose 10×; 33.5 μmol/kg) used for therapy study, a high level of 339±45 nM free MMAE was detected in tumors.

LS174T xenografts [7] = assay: Therapy study in mice with LS174T xenografts; assay type: in vivo
Procedure: Groups of 10 female nude Balb/C mice were s.c. inoculated ca. 1×10^6 LS174T cells in the hindlimb and the therapy study started when the tumors became palpable (5-11 days after tumor cell inoculation). One group was administered four cycles (one cycle every 4 days) of tc-ADC (ca. 4 mg/kg) followed by activator 2.16 (ca. 33.5 μmol/kg) 48 later. Control groups received four cycles of ADC alone, activator alone, or vehicle. Tumor sizes and body weights were measured 2-3 times per week. […] On the contrary, all control mice were euthanized within 3 weeks from the beginning of the treatment due to large tumor size (>1.5 gr) or poor health conditions with a 15.5-17.5 days median survival. Overall, the repeated treatments were tolerated well by the mice, with no overt signs of hematological toxicity that could be attributed to the use of ADC and activator, either in combination or alone.

[8] = 2 min after reaction with activator

SMILES: Nc1cccnc1-c1nnc(-c2ncccc2N)nn1 [2.1, 2,2′-(1,2,4,5-Tetrazine-3,6-diyl)bis(pyridin-3-amine)]
- MMAE release from ADC AVP0458-TCO-MMAE, Release (%) (ADC AVP0458-TCO-MMAE; 24 h, mean ± SD (n = 3)): 32.1 ± 0.7^b %

SMILES: CC(=O)Nc1cccnc1-c1nnc(-c2ncccc2NC(C)=O)nn1 [2.2, N,N′-(2,2′-(1,2,4,5-Tetrazine-3,6-diyl)bis(pyridine-3,2-diyl))diacetamide]
- MMAE release from ADC AVP0458-TCO-MMAE, Release (%) (ADC AVP0458-TCO-MMAE; 24 h, mean ± SD (n = 3)): 79.3 ± 0.4%
- Construct release % ([1]; TCO 3.11, doxorubicin, 18 h, 37° C.): 18 h: 74%
- Construct release % ([1]; TCO 3.11, doxorubicin, 42 h, 37° C.): 42 h: 81%
- Construct release % ([1]; TCO 3.11, released construct doxorubicin, 5 min): 5 min: 4%
- Construct release % ([1]; TCO 3.23, released construct dimethylamine, 5 min): 5 min: 100%
- Construct release % ([1]; TCO 3.32, released construct dimethylamine, 5 min): 5 min: 98%

SMILES: Nc1cnccc1-c1nnc(-c2ccncc2N)nn1 [2.3, 4,4′-(1,2,4,5-Tetrazine-3,6-diyl)bis(pyridin-3-amine)]
- MMAE release from ADC AVP0458-TCO-MMAE, Release (%) (ADC AVP0458-TCO-MMAE; 24 h, mean ± SD (n = 3)): 88.5 ± 0.1%

SMILES: CC(=O)Nc1cnccc1-c1nnc(-c2ccncc2NC(C)=O)nn1 [2.4, N,N′-(4,4′-(1,2,4,5-Tetrazine-3,6-diyl)bis(pyridine-4,3-diyl))diacetamide]
- MMAE release from ADC AVP0458-TCO-MMAE, Release (%) (ADC AVP0458-TCO-MMAE; 24 h, mean ± SD (n = 3)): 96.0 ± 0.3%

SMILES: Oc1cnccc1-c1nnc(-c2ccncc2O)nn1 [2.8, 4,4′-(1,2,4,5-Tetrazine-3,6-diyl)bis(pyridin-3-ol)]
- Calculated k2 values for the reaction between tetrazine activators and TCO 3.2 in PBS [2]: 270 ± 11 M⁻¹ s⁻¹
- Calculated k2 values for the reaction between tetrazine activators and TCO 3.2 in MeCN [3]: 10 M⁻¹ s⁻¹
- half-life at 16.6 µM [4]: 6.5 ± 0.6 h
- MMAE release from ADC AVP0458-TCO-MMAE, Release (%) (ADC AVP0458-TCO-MMAE; [8]): 48.7%
- MMAE release from ADC AVP0458-TCO-MMAE, Release (%) (ADC AVP0458-TCO-MMAE; 10 min): 83.4%
- MMAE release from ADC AVP0458-TCO-MMAE, Release (%) (ADC AVP0458-TCO-MMAE; 1 h): 92.7%
- MMAE release from ADC AVP0458-TCO-MMAE, Release (%) (ADC AVP0458-TCO-MMAE; 5 h): 93.6%
- MMAE release from ADC AVP0458-TCO-MMAE, Release (%) (ADC AVP0458-TCO-MMAE; 24 h, mean ± SD (n = 3)): 94.3 ± 1.3%
- MMAE release level, in words (ADC AVP0458-TCO-MMAE): as high as that obtained with the less reactive 2.17
- MMAE release speed, in words (ADC AVP0458-TCO-MMAE; compared with 2.17): faster
- viability at 72 h, 0.01 μM [5]: 96.9 ± 3.6%
- viability at 72 h, 0.1 μM [5]: 98.4 ± 3.6%
- viability at 72 h, 1 μM [5]: 93.9 ± 5.2%

SMILES: O=C(CCCC(=O)Nc1cnccc1-c1nnc(-c2ccncc2NC(=O)CCCC(=O)NCCOCCOCCOCCOCCOCCOCCOCCOCCOCCO)nn1)NCCOCCOCCOCCOCCOCCOCCOCCOCCOCCO [2.16, N^1,N^1′-(4,4′-(1,2,4,5-Tetrazine-3,6-diyl)bis(pyridine-4,3-diyl))bis(N^5-(29-hydroxy-3,6,9,12,15,18,21,24,27-nonaoxanonacosyl)glutaramide)]
- Calculated k2 values for the reaction between tetrazine activators and TCO 3.2 in PBS [2]: 519 ± 12 M⁻¹ s⁻¹
- half-life at 16.6 µM [4]: 4.2 ± 0.1 h
- MMAE release from ADC AVP0458-TCO-MMAE, Release (%) (ADC AVP0458-TCO-MMAE; [8]): 1.9%
- MMAE release from ADC AVP0458-TCO-MMAE, Release (%) (ADC AVP0458-TCO-MMAE; 10 min): 19.4%
- MMAE release from ADC AVP0458-TCO-MMAE, Release (%) (ADC AVP0458-TCO-MMAE; 1 h): 70.7%
- MMAE release from ADC AVP0458-TCO-MMAE, Release (%) (ADC AVP0458-TCO-MMAE; 5 h): 82.8%
- MMAE release from ADC AVP0458-TCO-MMAE, Release (%) (ADC AVP0458-TCO-MMAE; 24 h, mean ± SD (n = 3)): 95.6 ± 0.6%
- MMAE release level, in words (ADC AVP0458-TCO-MMAE): as high as that obtained with the less reactive 2.17
- viability at 72 h, 0.01 μM [5]: 105 ± 7.4%
- viability at 72 h, 0.1 μM [5]: 96.9 ± 3%
- viability at 72 h, 1 μM [5]: 93.9 ± 2.8%
- MMAE release in tumors, comparison of activators (LS174T xenografts [6]; 5× dose of activator): significantly higher release
- free MMAE in tumors, comparison of activators (LS174T xenografts [6]; 24 h after administration of activator at dose 1×): No difference
- time for which growth of LS174T tumors was completely inhibited (LS174T xenografts [7]; four cycles of tc-ADC (ca. 4 mg/kg) followed by activator 2.16 (ca. 33.5 μmol/kg) 48 later): over 3 weeks
- median overall survival (LS174T xenografts [7]; four cycles, one cycle every 4 days, treated group: tc-ADC ca. 4 mg/kg + 2.16 ca. 33.5 μmol/kg, controls: ADC alone, activator alone, or vehicle): 42 days

SMILES: Cc1nnc(C)nn1 [2.17, 3,6-bismethyl-tetrazine, reference compound]
- viability at 72 h, 0.01 μM [5]: 90.2 ± 4.5%
- viability at 72 h, 0.1 μM [5]: 87.9 ± 6.4%
- viability at 72 h, 1 μM [5]: 85.7 ± 7.4%

SMILES: c1ccc(-c2nnc(-c3ccccn3)nn2)nc1 [2.18, 3,6-bis(2-pyridinyl)-tetrazine, reference compound]
- viability at 72 h, 0.01 μM [5]: 101 ± 3%
- viability at 72 h, 0.1 μM [5]: 101 ± 2.8%
- viability at 72 h, 1 μM [5]: 102 ± 3.6%

SMILES: c1cc(-c2nnc(-c3ccncc3)nn2)ccn1 [2.19, 3,6-bis(4-pyridinyl)-tetrazine, reference compound]
- viability at 72 h, 0.01 μM [5]: 87 ± 2.6%
- viability at 72 h, 0.1 μM [5]: 88.7 ± 2.5%
- viability at 72 h, 1 μM [5]: 91.3 ± 3%
